These results are taken from PMC5218480 (PLoS ONE, 2017).

The assay deals with MV-4-11 cells. Kind of assay: Gene expression microarray analysis (Affymetrix PrimeView) and GSEA. Also noted: RFU PODN (11730768_x_at) / Fold change /veh PODN (11730768_x_at) / RFU LINC00158 (11744669_a_at) / Fold change /veh LINC00158 (11744669_a_at) / RFU DUSP10 (11751237_a_at) / Fold change /veh DUSP10 (11751237_a_at) / RFU ID3 (11757404_x_at) / Fold change /veh ID3 (11757404_x_at) / RFU PLEKHG5 (11737974_s_at) / Fold change /veh PLEKHG5 (11737974_s_at) / RFU LRRC4B (11730491_at) / Fold change /veh LRRC4B (11730491_at) / RFU GIMAP4 (11747438_a_at) / Fold change /veh GIMAP4 (11747438_a_at) / RFU KRT8 (11758183_x_at) / Fold change /veh KRT8 (11758183_x_at) / RFU CNN1 (11734310_a_at) / Fold change /veh CNN1 (11734310_a_at) / RFU VPS37D (11726825_at) / Fold change /veh VPS37D (11726825_at) / RFU C10orf10 (11716522_x_at) / Fold change /veh C10orf10 (11716522_x_at) / RFU KIR2DL2 /// KIR2DL4 /// KIR2DL5A /// KIR2DL5B /// KIR2DS1 /// KIR2DS2 /// KIR2DS3 /// KIR2DS4 /// KIR3DL3 /// KIR3DL3 /// KIR3DS1 (11738374_at) / Fold change /veh KIR2DL2 /// KIR2DL4 /// KIR2DL5A /// KIR2DL5B /// KIR2DS1 /// KIR2DS2 /// KIR2DS3 /// KIR2DS4 /// KIR3DL3 /// KIR3DL3 /// KIR3DS1 (11738374_at) / RFU C1QL1 (11718748_at) / Fold change /veh C1QL1 (11718748_at) / RFU TMPRSS4 (11747572_a_at) / Fold change /veh TMPRSS4 (11747572_a_at) / RFU HAMP (11756126_x_at) / Fold change /veh HAMP (11756126_x_at) / RFU RNFT2 (11725882_a_at) / Fold change /veh RNFT2 (11725882_a_at) / RFU NR4A2 (11747474_a_at) / Fold change /veh NR4A2 (11747474_a_at) / RFU ABCC12 (11746883_a_at) / Fold change /veh ABCC12 (11746883_a_at) / RFU TMEM136 (11760407_x_at) / Fold change /veh TMEM136 (11760407_x_at) / RFU CLDN22 /// WWC2 (11732394_at) / Fold change /veh CLDN22 /// WWC2 (11732394_at) / RFU HLA-DPB1 (11760878_x_at) / Fold change /veh HLA-DPB1 (11760878_x_at) / RFU SPINT1 (11716480_a_at) / Fold change /veh SPINT1 (11716480_a_at) / RFU GAP43 (11754022_s_at) / Fold change /veh GAP43 (11754022_s_at) / RFU A4GNT (11735810_at) / Fold change /veh A4GNT (11735810_at) / RFU PRB3 (11715151_x_at) / Fold change /veh PRB3 (11715151_x_at) / RFU TUBB4B (11761932_at) / Fold change /veh TUBB4B (11761932_at) / RFU CAPN14 (11732068_a_at) / Fold change /veh CAPN14 (11732068_a_at) / RFU TMCC2 (11721928_a_at) / Fold change /veh TMCC2 (11721928_a_at) / RFU IRGQ (11745062_a_at) / Fold change /veh IRGQ (11745062_a_at) / RFU FAM174B (11720279_a_at) / Fold change /veh FAM174B (11720279_a_at) / RFU TMPRSS4 (11748680_a_at) / Fold change /veh TMPRSS4 (11748680_a_at) / RFU FAM212B (11763350_a_at) / Fold change /veh FAM212B (11763350_a_at) / RFU PLEKHG5 (11743358_a_at) / Fold change /veh PLEKHG5 (11743358_a_at) / RFU ZSCAN30 (11745921_a_at) / Fold change /veh ZSCAN30 (11745921_a_at) / RFU CMKLR1 (11741424_a_at) / Fold change /veh CMKLR1 (11741424_a_at) / RFU LOC101060620 /// MAPK8IP1 (11723275_at) / Fold change /veh LOC101060620 /// MAPK8IP1 (11723275_at) / RFU SPTSSB (11747773_x_at) / Fold change /veh SPTSSB (11747773_x_at) / RFU PRSS12 (11739890_at) / Fold change /veh PRSS12 (11739890_at) / RFU BIN1 (11741810_x_at) / Fold change /veh BIN1 (11741810_x_at) / RFU WNT11 (11732464_a_at) / Fold change /veh WNT11 (11732464_a_at) / RFU C10orf10 (11716521_a_at) / Fold change /veh C10orf10 (11716521_a_at) / RFU C5orf56 (11738089_at) / Fold change /veh C5orf56 (11738089_at) / RFU CYB561 (11721691_x_at) / Fold change /veh CYB561 (11721691_x_at) / RFU ANKRD19P (11752326_a_at) / Fold change /veh ANKRD19P (11752326_a_at) / RFU OR2T12 /// OR2T33 /// OR2T8 (11738714_s_at) / Fold change /veh OR2T12 /// OR2T33 /// OR2T8 (11738714_s_at) / RFU VCAN (11748164_a_at) / Fold change /veh VCAN (11748164_a_at) / RFU JSRP1 (11732532_at) / Fold change /veh JSRP1 (11732532_at) / RFU KRTAP10-11 (11738290_x_at) / Fold change /veh KRTAP10-11 (11738290_x_at) / RFU MYO3A (11730013_a_at) / Fold change /veh MYO3A (11730013_a_at) / RFU EBF3 (11725865_a_at) / Fold change /veh EBF3 (11725865_a_at) / RFU CAMK2N1 (11719241_x_at) / Fold change /veh CAMK2N1 (11719241_x_at) / RFU C5orf56 (11738088_a_at) / Fold change /veh C5orf56 (11738088_a_at) / RFU OLFML3 (11715873_a_at) / Fold change /veh OLFML3 (11715873_a_at) / RFU LOC100653217 /// NTM (11731650_a_at) / Fold change /veh LOC100653217 /// NTM (11731650_a_at) / RFU MAPK11 (11762145_a_at) / Fold change /veh MAPK11 (11762145_a_at) / RFU FIZ1 (11724087_x_at) / Fold change /veh FIZ1 (11724087_x_at) / RFU OASL (11726364_x_at) / Fold change /veh OASL (11726364_x_at) / RFU SOX15 (11748057_x_at) / Fold change /veh SOX15 (11748057_x_at) / RFU CD79A (11719716_a_at) / Fold change /veh CD79A (11719716_a_at) / RFU HIST1H1D (11736915_at) / Fold change /veh HIST1H1D (11736915_at) / RFU CASKIN2 (11723855_a_at) / Fold change /veh CASKIN2 (11723855_a_at) / RFU LOC730098 (11760151_x_at) / Fold change /veh LOC730098 (11760151_x_at) / RFU OR4N2 (11742367_at) / Fold change /veh OR4N2 (11742367_at) / RFU PRRT2 (11749266_a_at) / Fold change /veh PRRT2 (11749266_a_at) / RFU SNX32 (11753110_a_at) / Fold change /veh SNX32 (11753110_a_at) / RFU CDHR5 (11726645_a_at) / Fold change /veh CDHR5 (11726645_a_at) / RFU RCAN1 (11760418_a_at) / Fold change /veh RCAN1 (11760418_a_at) / RFU FAM167A (11723789_a_at) / Fold change /veh FAM167A (11723789_a_at) / RFU FAM26E (11764081_at) / Fold change /veh FAM26E (11764081_at) / RFU ISYNA1 (11749810_s_at) / Fold change /veh ISYNA1 (11749810_s_at) / RFU ACY1 (11761880_at) / Fold change /veh ACY1 (11761880_at) / RFU 11764098_at / Fold change /veh 11764098_at / RFU SAMD14 (11745864_x_at) / Fold change /veh SAMD14 (11745864_x_at) / RFU NPB (11741838_a_at) / Fold change /veh NPB (11741838_a_at) / RFU TMPRSS6 (11731388_a_at) / Fold change /veh TMPRSS6 (11731388_a_at) / RFU KRTAP10-2 (11738614_at) / Fold change /veh KRTAP10-2 (11738614_at) / RFU ARHGAP8 /// PRR5-ARHGAP8 (11727945_x_at) / Fold change /veh ARHGAP8 /// PRR5-ARHGAP8 (11727945_x_at) / RFU KRTAP5-7 /// NADSYN1 (11734609_at) / Fold change /veh KRTAP5-7 /// NADSYN1 (11734609_at) / RFU RASL12 (11751679_a_at) / Fold change /veh RASL12 (11751679_a_at) / RFU CDKN2B (11736163_a_at) / Fold change /veh CDKN2B (11736163_a_at) / RFU PRF1 (11729649_at) / Fold change /veh PRF1 (11729649_at) / RFU, ZNF638 /// ZNF638-IT1 / Fold change vs veh, ZNF638 /// ZNF638-IT1 / RFU, PANK3 / Fold change vs veh, PANK3 / RFU, SH3YL1 / Fold change vs veh, SH3YL1 / RFU, ZEB2 / Fold change vs veh, ZEB2 / RFU, NRIP1 / Fold change vs veh, NRIP1 / RFU, PTTG1IP / Fold change vs veh, PTTG1IP / RFU, CAPN2 / Fold change vs veh, CAPN2 / RFU, MED14 / Fold change vs veh, MED14 / RFU, SNORA58 / Fold change vs veh, SNORA58 / RFU, C1orf63 / Fold change vs veh, C1orf63 / RFU, LRRFIP1 / Fold change vs veh, LRRFIP1 / RFU, NDUFAF7 / Fold change vs veh, NDUFAF7 / RFU, SLC12A2 / Fold change vs veh, SLC12A2 / RFU, IBTK / Fold change vs veh, IBTK / RFU, ESF1 / Fold change vs veh, ESF1 / Fold change vs veh, TMEM50B / RFU, TAOK1 / Fold change vs veh, TAOK1 / RFU, ACBD3 / Fold change vs veh, ACBD3 / RFU, TMA16 / Fold change vs veh, TMA16 / RFU, RWDD3 / Fold change vs veh, RWDD3 / RFU, BCAT1 / Fold change vs veh, BCAT1 / RFU, EDEM3 / Fold change vs veh, EDEM3 / RFU, TMEM33 / Fold change vs veh, TMEM33 / RFU, WDR75 / Fold change vs veh, WDR75 / RFU, AHCTF1 / Fold change vs veh, AHCTF1 / RFU, TFRC / Fold change vs veh, TFRC / RFU, ZDHHC17 / Fold change vs veh, ZDHHC17 / RFU, NOM1 / Fold change vs veh, NOM1 / RFU, ARL8B / Fold change vs veh, ARL8B / RFU, ZBTB11 / Fold change vs veh, ZBTB11 / RFU, TAMM41 / Fold change vs veh, TAMM41 / RFU, KIAA1704 /// LOC100996395 / Fold change vs veh, KIAA1704 /// LOC100996395 / RFU, ING1 / Fold change vs veh, ING1 / RFU, TRMT61B / Fold change vs veh, TRMT61B / RFU, FUBP3 / Fold change vs veh, FUBP3 / RFU, TP53 / Fold change vs veh, TP53 / RFU, TNKS2 / Fold change vs veh, TNKS2 / RFU, ZFP14 / Fold change vs veh, ZFP14 / RFU, ACTR2 / Fold change vs veh, ACTR2 / RFU, PPP3R1 / Fold change vs veh, PPP3R1 / RFU, PIK3R1 / Fold change vs veh, PIK3R1 / RFU, HNRNPA1 / Fold change vs veh, HNRNPA1 / RFU, RNF170 / Fold change vs veh, RNF170 / RFU, ZNF28 / Fold change vs veh, ZNF28 / RFU, RNGTT / Fold change vs veh, RNGTT / RFU, OGT / Fold change vs veh, OGT / RFU, BRD1 / Fold change vs veh, BRD1 / RFU, MARS / Fold change vs veh, MARS / RFU, ZNF655 / Fold change vs veh, ZNF655 / RFU, FAHD1 / Fold change vs veh, FAHD1 / RFU, BDP1 / Fold change vs veh, BDP1 / RFU, LRRCC1 / Fold change vs veh, LRRCC1 / RFU, ARID1A / Fold change vs veh, ARID1A / RFU, ZNF146 / Fold change vs veh, ZNF146 / RFU, ZNF330 / Fold change vs veh, ZNF330 / RFU, GPN3 / Fold change vs veh, GPN3 / RFU, C9orf123 / Fold change vs veh, C9orf123 / RFU, N4BP2L2 / Fold change vs veh, N4BP2L2 / RFU, ARFIP1 / Fold change vs veh, ARFIP1 / RFU, FAM179B / Fold change vs veh, FAM179B / RFU, BCL10 / Fold change vs veh, BCL10 / RFU, UHRF1BP1L / Fold change vs veh, UHRF1BP1L / RFU, BET1 / Fold change vs veh, BET1 / RFU, CNOT2 / Fold change vs veh, CNOT2 / RFU, ZNF268 / Fold change vs veh, ZNF268 / Fold change vs veh, ZNF507 / RFU, DGCR2 / Fold change vs veh, DGCR2 / RFU, WDSUB1 / Fold change vs veh, WDSUB1 / Fold change vs veh, HSP90B1 /// MIR3652 / RFU, ADSS / Fold change vs veh, ADSS / RFU, GK / Fold change vs veh, GK / RFU, ZNF148 / Fold change vs veh, ZNF148 / RFU, TAF9 / Fold change vs veh, TAF9 / RFU, SLC1A5 / Fold change vs veh, SLC1A5 / RFU, SLMO2 / Fold change vs veh, SLMO2 / RFU, ABCC4 / Fold change vs veh, ABCC4 / RFU, LOC101060439 /// RAP1B / Fold change vs veh, LOC101060439 /// RAP1B / RFU, RFX7 / Fold change vs veh, RFX7 / RFU, GTPBP10 / Fold change vs veh, GTPBP10 / RFU, CNEP1R1 / Fold change vs veh, CNEP1R1 / RFU, BIVM-ERCC5 /// ERCC5 / Fold change vs veh, BIVM-ERCC5 /// ERCC5 / RFU, ILF3 / Fold change vs veh, ILF3 / RFU 11762660_at / Fold change /veh 11762660_at / RFU VCAN (11757783_s_at) / Fold change /veh VCAN (11757783_s_at) / RFU DDX43 (11728927_at) / Fold change /veh DDX43 (11728927_at) / RFU KRT8 (11758188_x_at) / Fold change /veh KRT8 (11758188_x_at) / RFU NKD1 (11759106_at) / Fold change /veh NKD1 (11759106_at) / RFU SRD5A1 (11742802_a_at) / Fold change /veh SRD5A1 (11742802_a_at) / RFU TPSAB1 /// TPSB2 (11721975_s_at) / Fold change /veh TPSAB1 /// TPSB2 (11721975_s_at) / RFU GSTM3 (11746129_a_at) / Fold change /veh GSTM3 (11746129_a_at) / RFU IL23R (11737362_x_at) / Fold change /veh IL23R (11737362_x_at) / RFU TMEM51 (11727254_a_at) / Fold change /veh TMEM51 (11727254_a_at) / RFU PIWIL2 (11732686_x_at) / Fold change /veh PIWIL2 (11732686_x_at) / RFU ORM1 (11744905_x_at) / Fold change /veh ORM1 (11744905_x_at) / RFU CCDC152 (11743942_at) / Fold change /veh CCDC152 (11743942_at) / RFU ECM1 (11717891_a_at) / Fold change /veh ECM1 (11717891_a_at) / RFU IL23R (11748794_a_at) / Fold change /veh IL23R (11748794_a_at) / RFU TNFAIP8L3 (11732012_x_at) / Fold change /veh TNFAIP8L3 (11732012_x_at) / RFU MBOAT4 (11741988_at) / Fold change /veh MBOAT4 (11741988_at) / RFU 11764193_at / Fold change /veh 11764193_at / RFU TMEM53 (11763286_at) / Fold change /veh TMEM53 (11763286_at) / RFU MAGEB2 (11727129_at) / Fold change /veh MAGEB2 (11727129_at) / RFU TMEM200A (11744735_a_at) / Fold change /veh TMEM200A (11744735_a_at) / RFU CCDC152 (11751479_a_at) / Fold change /veh CCDC152 (11751479_a_at) / RFU FAM211A (11726209_a_at) / Fold change /veh FAM211A (11726209_a_at) / RFU RGS16 (11746705_a_at) / Fold change /veh RGS16 (11746705_a_at) / RFU VCAN (11755009_s_at) / Fold change /veh VCAN (11755009_s_at) / RFU RHOB (11743442_s_at) / Fold change /veh RHOB (11743442_s_at) / RFU RGS16 (11720943_a_at) / Fold change /veh RGS16 (11720943_a_at) / RFU RGS16 (11720944_at) / Fold change /veh RGS16 (11720944_at) / RFU, VPS4B / Fold change vs veh, VPS4B / RFU, CREB1 / Fold change vs veh, CREB1 / RFU, DNAJC13 / Fold change vs veh, DNAJC13 / RFU, GNAQ / Fold change vs veh, GNAQ / RFU, CDK5R1 / Fold change vs veh, CDK5R1 / RFU, ZRANB3 / Fold change vs veh, ZRANB3 / RFU, CUL4A / Fold change vs veh, CUL4A / RFU, CCNY / Fold change vs veh, CCNY / RFU, UFL1 / Fold change vs veh, UFL1 / RFU, COG3 / Fold change vs veh, COG3 / RFU, DIAPH2 / Fold change vs veh, DIAPH2 / RFU, SKA2 / Fold change vs veh, SKA2 / RFU, AFF3 / Fold change vs veh, AFF3 / RFU, LMF1 / Fold change vs veh, LMF1 / RFU, IPO11 / Fold change vs veh, IPO11 / RFU, DFFB / Fold change vs veh, DFFB / RFU, FOXP1 / Fold change vs veh, FOXP1 / RFU, CARD8 / Fold change vs veh, CARD8 / RFU, STRN3 / Fold change vs veh, STRN3 / RFU, ADK / Fold change vs veh, ADK / RFU, RASSF2 / Fold change vs veh, RASSF2 / RFU, WIPF1 / Fold change vs veh, WIPF1 / RFU, LARP1B / Fold change vs veh, LARP1B / RFU, RASA1 / Fold change vs veh, RASA1 / RFU, RB1 / Fold change vs veh, RB1 / RFU, PPFIA1 / Fold change vs veh, PPFIA1 / RFU, MAT2A / Fold change vs veh, MAT2A / RFU, CCT5 / Fold change vs veh, CCT5 / RFU, WDR92 / Fold change vs veh, WDR92 / RFU, CUX1 / Fold change vs veh, CUX1 / RFU, TTC7A / Fold change vs veh, TTC7A / RFU, TMEM135 / Fold change vs veh, TMEM135 / RFU, DEPTOR / Fold change vs veh, DEPTOR / RFU, CPM / Fold change vs veh, CPM / RFU, DNAJB6 / Fold change vs veh, DNAJB6 / RFU, CACNA2D3 / Fold change vs veh, CACNA2D3 / RFU, DTX4 / Fold change vs veh, DTX4 / RFU, TFCP2 / Fold change vs veh, TFCP2 / RFU, GMCL1 /// GMCL1P1 / Fold change vs veh, GMCL1 /// GMCL1P1 / RFU, AEBP2 / Fold change vs veh, AEBP2 / RFU, SNHG1 /// SNORD22 /// SNORD25 /// SNORD26 /// SNORD27 /// SNORD28 /// SNORD29 /// SNORD31 / Fold change vs veh, SNHG1 /// SNORD22 /// SNORD25 /// SNORD26 /// SNORD27 /// SNORD28 /// SNORD29 /// SNORD31 / Fold change (Aza/veh), C12orf56 (ProbeSet 11735607_a_at) / Fold change (ACY-1035/veh), C12orf56 (ProbeSet 11735607_a_at) / Fold change (Aza/veh), FGFR1OP (ProbeSet 11751329_s_at) / Fold change (ACY-1035/veh), FGFR1OP (ProbeSet 11751329_s_at) / Fold change (Aza/veh), VPS36 (ProbeSet 11739960_a_at) / Fold change (ACY-1035/veh), VPS36 (ProbeSet 11739960_a_at) / RFU SYPL1 (11715823_x_at) / Fold change /veh SYPL1 (11715823_x_at) / RFU IGFBP7 (11715501_s_at) / Fold change /veh IGFBP7 (11715501_s_at) / RFU REEP3 (11722064_at) / Fold change /veh REEP3 (11722064_at) / RFU IGLL1 (11728026_x_at) / Fold change /veh IGLL1 (11728026_x_at): dose or concentration left out as unconfirmed. Conditions: MV-4-11 cells, 48 hours. The class given is cell-based, human.

Consider `Nc1ncn([C@@H]2O[C@H](CO)[C@@H](O)[C@H]2O)c(=O)n1` [azacitidine], for which the “RFU KRT8 (11758183_x_at)” value amounted to 20.69 RFU.
